Measured values from a melting point compilation (Tetko et al.; mined from patent text by program, amines drawn as free bases though some values may be those of a salt).

| Compound | melting point [°C] |
| --- | --- |
| CNc1nc(-c2ccc(OCc3ccc(Cl)cc3)cc2)cs1 | 158 to 159 |
| CCOC(=O)c1nc(-c2ccc(Cl)cc2Cl)c(-c2ccc(Cl)cc2)s1 | 117 to 118 |
| Clc1cc(Cl)nc(N2CCCC2)n1 | 95 to 98 |
| CCCCCCN(Cc1ccccn1)C(Nc1cc(C(C)(C)C)c(O)c(C(C)(C)C)c1)=C1C(=O)OC(C)(C)OC1=O | 169 to 170 |
| CN1CCC(NC(=O)c2cccc(Cl)c2)C12CCCCC2 (stereo not drawn) | 121 to 122 |
| COc1ccc2ncc3c(c2c1)C(OC(C)=O)CCC3 (stereo not drawn) | 116 to 117 |
| CC(=O)Nc1ccc([C@@H]2CO2)cn1 | 96 to 98 |
| COC1CC2(C)C(CCC3C4CC=C(C(C)=O)C4(C)CC(=O)C32)CC1O (stereo not drawn) | 159 to 163 |
| COc1nc2cc(Cl)c(Cl)c([N+](=O)[O-])c2nc1OC | 184 to 186 |
| CCOP(=O)(Cc1ccc(NC(=O)c2cc3c(s2)-c2c(SC)sc(C(=O)Nc4ccc(CP(=O)(OCC)OCC)cc4)c2CC3)cc1)OCC | 262 to 263 |
| CN(C)CCN1CCC(=Cc2cc(C(C)(C)C)c(O)c(C(C)(C)C)c2)C1=O | 150 |
| CNc1nc(OC)c(C(=O)O)cc1Br | 224 to 225 |
| COc1cc(C=CC=O)ccc1OCc1nc(-c2ccco2)oc1C | 125 to 126 |
| CN1C(C(=O)O)C(=O)c2ccccc2S1(=O)=O (stereo not drawn) | 144 to 146 |
| c1cnc(N2CCN(Cc3nc4ccccc4[nH]3)CC2)nc1 | 198 to 200 |
| CN(C)c1ccccc1CSC1=NC(SCc2ccccc2)=NC1(C)C | 91 to 92 |
| CCC(=NO)c1nc(C)nc2c1c(C)c(C)n2-c1c(C)cc(C)cc1C | 84 to 87 |
| CC(C)c1nc2ccccn2c(=O)c1-c1ccc(NC2CCN(C(=O)OC(C)(C)C)C2)cc1 (stereo not drawn) | 232 to 236 |
| COc1ccc(N2C(=O)c3ccc(Cl)cc3C2CC(=O)O)cc1 (stereo not drawn) | 250 to 251 |
| CC(C)=CC(=O)N(C)c1cccc(Br)c1 | 92 to 94 |
| Cc1cc(C)cc(-c2cc(C)cn2-c2ccc(S(N)(=O)=O)cc2)c1 | 163 to 166 |
| COc1cc(OCc2oc(=O)oc2C)c(C(=O)CCc2ccc3occc3c2)cc1C1OC(CO)C(O)C(O)C1O (stereo not drawn) | 128 |
| COc1cc(Cc2nc(NC(C)C)c3c(C)c(C#N)sc3n2)cc(OC)c1OC | 143 to 147 |
| Oc1ccc2cnccc2c1 | 218 to 220 |
| O=C1NC(=O)C(Cc2ccc(OCCN3C(=O)c4ccccc4C3=O)cc2)S1 (stereo not drawn) | 192 to 194 |
| COCC1OC(=Nc2nccs2)c2c1nc1cc(Cl)ccc1c2O (stereo not drawn) | > 270 |

| Compound | melting point [°C] |
| --- | --- |
| CN1CCN(CCC/C=C/c2ccc3c(Nc4ccc(Sc5nccn5C)c(Cl)c4)c(C#N)cnc3c2)CC1 | 219 to 227 |
| COc1cccc(C(=O)N(C)Cc2cccc(-c3ccc(CC4SC(=O)NC4=O)cc3)c2)c1 (stereo not drawn) | 173 |
| CN(C)c1nc(Cl)nc(N2CCOCC2)n1 | 96 to 97 |
| CC1CCc2c(N3CCC(NC(=O)OC(C)(C)C)C3)c(F)cc3c(=O)n(N)c(=O)n1c23 (stereo not drawn) | 98 to 100 |
| Cn1nnnc1SCCCCSc1ccccn1 | 49 to 51.5 |
| CC1(C)Oc2ccc3nc(C#N)ccc3c2C(NCCc2ccccc2)C1O (stereo not drawn) | 93 to 96 |
| O=C(Nc1cc2c3c(c1)CCCC3CCC2)c1ccc(C(=O)O)nc1 | 239 to 240 |
| CC1CCN(c2cc(C(C)(C)C)on2)C1=O (stereo not drawn) | 89 to 90 |
| COc1ccc(C(C(c2ccccc2)c2ccc(F)cc2)C(F)(F)F)cc1 (stereo not drawn) | 113 to 120 |
| BrCc1ccc(CBr)c(Br)c1 | 90 to 91 |
| O=C1Nc2cc(CN3CCN(c4ccc(C(=O)N5CCCC5)cc4)CC3)cnc2N2CCC[C@@H]12 | 121 |
| CC(=O)CC(=O)c1cc(Cl)c(Cl)cc1O | 134 to 135 |
| CN(C)c1ccc(C(N)=NNc2ccc([N+](=O)[O-])cc2)cc1 | 174 |
| COc1cc(OC)nc(Sc2sccc2NS(=O)(=O)CC#N)c1 | 118 to 120 |
| COc1ccc(S(=O)(=O)N2C(=O)C(NCCC(=O)OC(C)(C)C)(c3ccccc3OC)c3cc(Cl)ccc32)c(OC)c1 (stereo not drawn) | 175 |
| NNC(=O)c1ccc(C(=O)O)cc1 | 235 to 236 |
| CCSCC(=O)Nc1c(C)cccc1C | 96 to 98 |
| CCc1cccc(CC)c1NC(=O)NCC(c1ccccc1)c1ccccc1 | 200 to 201 |
| C=C(C)C(=O)Oc1ccc2ccc(O)c(-n3nc4ccccc4n3)c2c1 | 167 to 168 |
| CCOC(=O)c1c(Nc2ccncc2)c2ccc(Cl)cc2n1CC(=O)N(CC)CC | 212 to 214 |
| CCc1nn2c(-c3ccc(OC)cc3Cl)cccc2c1N(CCF)CCOC | 45.8 to 52.8 |
| O=[N+]([O-])c1ccc2c(c1)C(Cl)=NC(CF)(CF)O2 | 75 to 77 |
| CSc1nccc(C(C#N)C(=O)c2ccccc2)n1 (stereo not drawn) | 163 to 164 |
| CC(=O)c1cc(NC(=O)CCCC(=O)Nc2cc(C(C)=O)cc(C(C)=O)c2)cc(C(C)=O)c1 | 200 to 203 |
| Cc1ccc([N+](=O)[O-])c(C=C2C(=O)NC(=O)N2C)c1C | 195 to 198 |
| OC(c1ccc2c(c1)CCN2)(C(F)F)C(F)F | 130 to 134 |

| Compound | melting point [°C] |
| --- | --- |
| O=C1NC(C(Cl)(Cl)Cl)Nc2ccccc21 (stereo not drawn) | 201 to 202 |
| CCOC(=O)C1=C(C)NC(c2cscn2)=NC1c1ccc(F)cc1 (stereo not drawn) | 118 to 120 |
| Cc1cc(C)c(C(O)c2cc(-n3ccnc3)ccc2C)c(C)c1 (stereo not drawn) | 190 to 191 |
| COC(=O)c1ccc2cc(-c3ccc(OCCCO)c(C45CC6CC(CC(C6)C4)C5)c3)ccc2c1 | 202 |
| C=CCc1cc2c(c(CC=C)c1O)CCC(=O)N2Cc1ccc(C(=O)O)cc1 | 242 to 246 |
| COC(=O)c1ccc(CC(C)NCC(O)c2ccc(O)c(C)c2)cc1 (stereo not drawn) | 103 to 107 |
| CCNC1=NS(=O)N=C1NCCSCc1ccc(CN(C)C)o1 (stereo not drawn) | 68 to 74 |
| N#Cc1cc(F)ccc1-c1cncc(OC2SCC(O)C(O)C2O)c1 (stereo not drawn) | 198 to 200 |
| CCc1c(C(=O)O)oc2ccc(Br)cc12 | 240 to 242 |
| COC(=O)c1snc(-c2ccc(C#N)cc2)c1C(=O)OC | 134 to 135 |
| O=C(NC1C2CC3CC(C2)CC1C3)c1cc(-c2ccc(Cl)cc2)n(Cc2ccc(Cl)cc2Cl)n1 (stereo not drawn) | 154 |
| Cn1cc(C2=C(c3c4n(c5ccccc35)CCC4)C(=O)NC2=O)c2ccccc21 | 260 to 270 |
| O=C(Oc1ccc(-c2cc3ccccc3[nH]2)cc1)c1ccccc1 | 220 |
| C[Si](C)(Cn1cncn1)c1ccc(-c2ccccc2)cc1 | 79 to 86 |
| O=C(NC(c1ccccc1)c1ccccc1)N1CCC(C(=O)O)(c2ccccc2)CC1 | 208 |
| CCOC(=O)Cc1c(C(=O)OCC)c(CC)cn1C | 65 to 67 |
| COc1cc(N2CCN([C@H](C)c3ccc(OC)c(OC)c3)CC2)ccc1Cl | 172 to 176 |
| CCc1noc(-c2cn(-c3ccc(OC)c(OC)c3)cn2)n1 | 143 |
| NS(=O)(=O)c1ncccc1O | 162 to 164 |
| Nc1ncnc2c1nc(OC(=O)c1ccccc1)n2Cc1ccccc1 | 227 to 229 |
| C[C@@H](NC(=O)c1ccc(-c2ccc(Cl)cc2)s1)[C@](O)(Cn1cncn1)c1ccc(F)cc1F | 169 to 170 |
| O=S1(=O)N=C(c2ccc(Cl)cc2)N(c2cc(Cl)cc(Cl)c2)c2ccncc21 | 284 to 286 |
| CC(=O)SCCC(=O)N1N=C(c2ccccc2)CC1C(=O)O (stereo not drawn) | 137 to 139 |
| Cc1ccc(S(=O)(=O)N2[C@@H](CCc3nnco3)CC[C@H]2c2ccc(F)cc2)cc1 (racemic) | 138 |
| CC(C)(CCl)C(=O)NO | 148 to 151 |
| COc1ccc(N=Nc2ccc(O)c(C(=O)Nc3ccc(OC)c(-c4n[nH]c5cc(C)nn45)c3)c2)cc1 | 295 to 296 |

| Compound | melting point [°C] |
| --- | --- |
| COCC(=O)N(C)c1ccc(NC(=O)[C@H]2C[C@@H](O)CN2C(=O)Nc2ccc(Cl)cc2)cc1 | 84 |
| CN(c1ccc(F)cc1)c1nc(=O)c2cccnc2s1 | 184 to 185 |
| O=C(NCCc1cccc2ccc(OC3CCCCC3)cc12)C1CCC1 | 116 to 118 |
| Cn1nc2nnsc2c1C(N)=O | 183 to 184 |
| CCOP(=O)(OCC)C(P(=O)(OCC)OCC)S(=O)(=O)c1cc(C(C)(C)C)c(O)c(C(C)(C)C)c1 | 118 to 120 |
| Cc1cn(C(C)(C)C(=O)N(C)C)nc1-c1cccs1 | 116 to 119 |
| Cn1ccnc1Sc1ccc(Nc2c(C#N)cnc3cc(/C=C/CN4CCCC4)ccc23)cc1Cl | 182 to 190 |
| O=C(Nc1ccc(-n2nc(C3CCCO3)cc2C(F)(F)F)cc1)c1ccncc1F (stereo not drawn) | 116 to 118 |
| COC(=O)[C@H]1C[C@H](NS(C)(=O)=O)c2c(Cl)cc(Cl)cc2N1 (relative stereo) | 143 to 146 |
| COC1CCCCC1(O)c1ccncc1 (stereo not drawn) | 98 to 101 |
| CC1=C(C#N)C(=C(C#N)C#N)OC1(C)C | 203 |
| CC1(C)C2CC3=C(CCC(=O)O3)C1C2 (stereo not drawn) | 60 |
| CCCCCCC(NC(=O)OCc1ccccc1)P(=O)(O)CC(=O)OC (stereo not drawn) | 260 to 268 |
| C=C1CCC2C3CCC4=CC(=O)C=CC4(C)C3CCC12C (stereo not drawn) | 155 to 157 |
| O=C(N[C@H]1CC[C@H](CCN2CCC(c3cccc4c3CCO4)CC2)CC1)c1ccc(-c2cccnc2)cc1 | 224 |
| Fc1ccc(-c2ncnc(C(F)(F)F)c2Cl)c(F)c1 | 61 to 63 |
| Cc1nnc(-c2ccnc(Nc3cccc(C(F)(F)F)c3)c2)o1 | 217 to 218 |
| COc1ccc(CCNC(=O)[C@@H](N)C(C)C)cc1OC | 52 to 54 |
| CCCSc1nc(-c2ccc(C#N)cc2)cn1-c1ccc(C#N)cc1 | 117 to 122 |
| c1ccc(C(N=C2NCCCN2)c2ccccc2)cc1 | 238 to 242 |
| CC(=O)NC[C@H]1CN(c2cc(F)c(N3CCC(n4nnnc4-c4ccncc4)CC3)c(F)c2)C(=O)O1 | 202 to 204 |
| COc1ccc(C2(O)CCN(CC3CN(c4ccccc4)C(=O)O3)CC2)cc1 (stereo not drawn) | 121 to 122 |
| Cc1onc(-c2ccc(Cl)o2)c1-c1ccccc1 | 71 to 73 |
| N#CN1Cc2ccccc2-c2ccccc2C1 | 121 to 124 |
| O=C1NC2CC3CC(C2)CC1C3 | > 270 |
